According to the supplement of paper PMC10307832:

How the values were obtained:
Test in all cases: relative viability (nuclei count vs DMSO), 5 days (fraction); higher = more cells survive
[1] = compound: CN[C@@H]1C[C@H]2O[C@@](C)([C@@H]1OC)n1c3ccccc3c3c4c(c5c6ccccc6n2c5c31)C(=O)NC4 [Staurosporine] + C[C@]1(O)C[C@@H](c2nc(-c3ccc4ccc(-c5ccccc5)nc4c3)c3c(N)nccn32)C1 [Linsitinib] (partner 1 µM)
Summary of the method: (§1)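 A single step with final 0.05% Triton X-100, 1% formaldehyde and 1 ug/ml Hoechst fixed the cells and stained nuclei 5 days after treatment. Lung cancer cell lines in 1536-well plates had been treated by pin tool the day after seeding with one drug alone or a fixed anchor-drug dose plus five library-drug doses (not always all listed) in √10 steps, and nuclei were counted on 4× images. Relative viability is the ratio of nuclei in treated wells to nuclei in vehicle wells, taken as the median of duplicate plates.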

Sulindac + Navitoclax = compound: CC1=C(CC(=O)O)c2cc(F)ccc2/C1=C\c1ccc([S+](C)[O-])cc1 [Sulindac] + CC1(C)CCC(c2ccc(Cl)cc2)=C(CN2CCN(c3ccc(C(=O)NS(=O)(=O)c4ccc(N[C@H](CCN5CCOCC5)CSc5ccccc5)c(S(=O)(=O)C(F)(F)F)c4)cc3)CC2)C1 [Navitoclax] (partner 0.5 µM)
Summary of the method: as §1

Sulindac + Lapatinib = compound: CC1=C(CC(=O)O)c2cc(F)ccc2/C1=C\c1ccc([S+](C)[O-])cc1 [Sulindac] + CS(=O)(=O)CCNCc1ccc(-c2ccc3ncnc(Nc4ccc(OCc5cccc(F)c5)c(Cl)c4)c3c2)o1 [Lapatinib] (partner 2 µM)
Summary of the method: as §1

[2] = compound: CN[C@@H]1C[C@H]2O[C@@](C)([C@@H]1OC)n1c3ccccc3c3c4c(c5c6ccccc6n2c5c31)C(=O)NC4 [Staurosporine] + CC(C)C[C@H](NC(=O)[C@H](Cc1ccccc1)NC(=O)c1cnccn1)B(O)O [Bortezomib] (partner 0.002 µM)
Summary of the method: as §1

NCI-H1703
relative viability ([1]; first compound 0.005 µM): 0.561 | relative viability ([1]; first compound 0.01581 µM): 0.291 | relative viability ([1]; first compound 0.05 µM): 0.17 | relative viability ([1]; first compound 0.1581 µM): 0.146 | relative viability ([1]; first compound 0.5 µM): 0.083 | relative viability (Sulindac + Navitoclax; first compound 0.08 µM): 1.14 | relative viability (Sulindac + Navitoclax; first compound 0.253 µM): 0.978 | relative viability (Sulindac + Navitoclax; first compound 0.8 µM): 0.877 | relative viability (Sulindac + Navitoclax; first compound 2.53 µM): 1.1 | relative viability (Sulindac + Navitoclax; first compound 8 µM): 1.45 | relative viability (Sulindac + Lapatinib; first compound 0.08 µM): 1.37 | relative viability (Sulindac + Lapatinib; first compound 0.253 µM): 1.37 | relative viability (Sulindac + Lapatinib; first compound 0.8 µM): 0.97 | relative viability (Sulindac + Lapatinib; first compound 2.53 µM): 1.25 | relative viability (Sulindac + Lapatinib; first compound 8 µM): 1.08 | relative viability ([2]; first compound 0.005 µM): 0.215 | relative viability ([2]; first compound 0.01581 µM): 0.165 | relative viability ([2]; first compound 0.05 µM): 0.11 | relative viability ([2]; first compound 0.1581 µM): 0.157 | relative viability ([2]; first compound 0.5 µM): 0.111

NCI-H2170
relative viability (Sulindac + Navitoclax; first compound 0.08 µM): 0.564 | relative viability (Sulindac + Navitoclax; first compound 0.253 µM): 0.638 | relative viability (Sulindac + Navitoclax; first compound 0.8 µM): 0.495 | relative viability (Sulindac + Navitoclax; first compound 2.53 µM): 0.71 | relative viability (Sulindac + Navitoclax; first compound 8 µM): 0.6 | relative viability (Sulindac + Lapatinib; first compound 0.08 µM): 0.249 | relative viability (Sulindac + Lapatinib; first compound 0.253 µM): 0.282 | relative viability (Sulindac + Lapatinib; first compound 0.8 µM): 0.251 | relative viability (Sulindac + Lapatinib; first compound 2.53 µM): 0.272 | relative viability (Sulindac + Lapatinib; first compound 8 µM): 0.286

LCLC-97TM1
relative viability ([1]; first compound 0.005 µM): 0.237 | relative viability ([1]; first compound 0.01581 µM): 0.163 | relative viability ([1]; first compound 0.05 µM): 0.163 | relative viability ([1]; first compound 0.1581 µM): 0.207 | relative viability ([1]; first compound 0.5 µM): 0.144 | relative viability (Sulindac + Navitoclax; first compound 0.08 µM): 0.566 | relative viability (Sulindac + Navitoclax; first compound 0.253 µM): 0.397 | relative viability (Sulindac + Navitoclax; first compound 0.8 µM): 0.386 | relative viability (Sulindac + Navitoclax; first compound 8 µM): 0.351 | relative viability (Sulindac + Lapatinib; first compound 0.08 µM): 0.962 | relative viability (Sulindac + Lapatinib; first compound 0.253 µM): 1.45 | relative viability (Sulindac + Lapatinib; first compound 0.8 µM): 0.83 | relative viability (Sulindac + Lapatinib; first compound 8 µM): 1.37 | relative viability ([2]; first compound 0.005 µM): 0.164 | relative viability ([2]; first compound 0.01581 µM): 0.158 | relative viability ([2]; first compound 0.05 µM): 0.219 | relative viability ([2]; first compound 0.1581 µM): 0.151 | relative viability ([2]; first compound 0.5 µM): 0.0852

NCI-H1299
relative viability ([1]; first compound 0.005 µM): 0.785 | relative viability ([1]; first compound 0.01581 µM): 0.305 | relative viability ([1]; first compound 0.05 µM): 0.206 | relative viability ([1]; first compound 0.1581 µM): 0.143 | relative viability ([1]; first compound 0.5 µM): 0.113 | relative viability (Sulindac + Navitoclax; first compound 0.08 µM): 1.11 | relative viability (Sulindac + Navitoclax; first compound 0.253 µM): 1.05 | relative viability (Sulindac + Navitoclax; first compound 0.8 µM): 1.02 | relative viability (Sulindac + Navitoclax; first compound 2.53 µM): 1.05 | relative viability (Sulindac + Navitoclax; first compound 8 µM): 1.05 | relative viability (Sulindac + Lapatinib; first compound 0.08 µM): 1.06 | relative viability (Sulindac + Lapatinib; first compound 0.253 µM): 0.927 | relative viability (Sulindac + Lapatinib; first compound 0.8 µM): 0.96 | relative viability (Sulindac + Lapatinib; first compound 2.53 µM): 0.942 | relative viability (Sulindac + Lapatinib; first compound 8 µM): 1.06 | relative viability ([2]; first compound 0.005 µM): 1.1 | relative viability ([2]; first compound 0.01581 µM): 1.03 | relative viability ([2]; first compound 0.05 µM): 0.433 | relative viability ([2]; first compound 0.1581 µM): 0.255 | relative viability ([2]; first compound 0.5 µM): 0.169

NCI-H322M
relative viability ([1]; first compound 0.005 µM): 1.12 | relative viability ([1]; first compound 0.01581 µM): 0.648 | relative viability ([1]; first compound 0.05 µM): 0.56 | relative viability ([1]; first compound 0.1581 µM): 0.427 | relative viability ([1]; first compound 0.5 µM): 0.458 | relative viability (Sulindac + Navitoclax; first compound 0.08 µM): 1.28 | relative viability (Sulindac + Navitoclax; first compound 0.253 µM): 1.37 | relative viability (Sulindac + Navitoclax; first compound 0.8 µM): 1.08 | relative viability (Sulindac + Navitoclax; first compound 2.53 µM): 1.27 | relative viability (Sulindac + Navitoclax; first compound 8 µM): 1.29 | relative viability (Sulindac + Lapatinib; first compound 0.08 µM): 0.632 | relative viability (Sulindac + Lapatinib; first compound 0.253 µM): 0.626 | relative viability (Sulindac + Lapatinib; first compound 0.8 µM): 0.523 | relative viability (Sulindac + Lapatinib; first compound 2.53 µM): 0.565 | relative viability (Sulindac + Lapatinib; first compound 8 µM): 0.561 | relative viability ([2]; first compound 0.005 µM): 1.3 | relative viability ([2]; first compound 0.01581 µM): 1.14 | relative viability ([2]; first compound 0.05 µM): 0.993 | relative viability ([2]; first compound 0.1581 µM): 0.78 | relative viability ([2]; first compound 0.5 µM): 0.742

NCI-H1395
relative viability ([1]; first compound 0.005 µM): 0.947 | relative viability ([1]; first compound 0.01581 µM): 0.427 | relative viability ([1]; first compound 0.05 µM): 0.381 | relative viability ([1]; first compound 0.1581 µM): 0.377 | relative viability ([1]; first compound 0.5 µM): 0.289 | relative viability (Sulindac + Navitoclax; first compound 0.08 µM): 1.2 | relative viability (Sulindac + Navitoclax; first compound 0.253 µM): 1.17 | relative viability (Sulindac + Navitoclax; first compound 0.8 µM): 1.1 | relative viability (Sulindac + Navitoclax; first compound 2.53 µM): 1.19 | relative viability (Sulindac + Navitoclax; first compound 8 µM): 1.2 | relative viability (Sulindac + Lapatinib; first compound 0.08 µM): 1.2 | relative viability (Sulindac + Lapatinib; first compound 0.253 µM): 1.08 | relative viability (Sulindac + Lapatinib; first compound 0.8 µM): 1.01 | relative viability (Sulindac + Lapatinib; first compound 2.53 µM): 0.8 | relative viability (Sulindac + Lapatinib; first compound 8 µM): 1.15

NCI-H2023
relative viability ([1]; first compound 0.005 µM): 0.419 | relative viability ([1]; first compound 0.01581 µM): 0.17 | relative viability ([1]; first compound 0.05 µM): 0.197 | relative viability ([1]; first compound 0.1581 µM): 0.122 | relative viability ([1]; first compound 0.5 µM): 0.0751 | relative viability (Sulindac + Navitoclax; first compound 0.08 µM): 1.37 | relative viability (Sulindac + Navitoclax; first compound 0.253 µM): 0.987 | relative viability (Sulindac + Navitoclax; first compound 0.8 µM): 0.987 | relative viability (Sulindac + Navitoclax; first compound 2.53 µM): 0.977 | relative viability (Sulindac + Navitoclax; first compound 8 µM): 1.24 | relative viability (Sulindac + Lapatinib; first compound 0.08 µM): 0.708 | relative viability (Sulindac + Lapatinib; first compound 0.253 µM): 0.733 | relative viability (Sulindac + Lapatinib; first compound 0.8 µM): 0.741 | relative viability (Sulindac + Lapatinib; first compound 2.53 µM): 0.774 | relative viability (Sulindac + Lapatinib; first compound 8 µM): 1.09 | relative viability ([2]; first compound 0.005 µM): 0.612 | relative viability ([2]; first compound 0.01581 µM): 0.19 | relative viability ([2]; first compound 0.05 µM): 0.181 | relative viability ([2]; first compound 0.1581 µM): 0.0797 | relative viability ([2]; first compound 0.5 µM): 0.0526

NCI-H1651
relative viability ([1]; first compound 0.005 µM): 0.827 | relative viability ([1]; first compound 0.01581 µM): 0.587 | relative viability ([1]; first compound 0.05 µM): 0.331 | relative viability ([1]; first compound 0.1581 µM): 0.122 | relative viability ([1]; first compound 0.5 µM): 0.0924 | relative viability (Sulindac + Navitoclax; first compound 0.08 µM): 1.29 | relative viability (Sulindac + Navitoclax; first compound 0.253 µM): 1.3 | relative viability (Sulindac + Navitoclax; first compound 0.8 µM): 0.544 | relative viability (Sulindac + Navitoclax; first compound 2.53 µM): 1.22 | relative viability (Sulindac + Navitoclax; first compound 8 µM): 1.38 | relative viability (Sulindac + Lapatinib; first compound 0.08 µM): 1.07 | relative viability (Sulindac + Lapatinib; first compound 0.253 µM): 0.836 | relative viability (Sulindac + Lapatinib; first compound 0.8 µM): 0.736 | relative viability (Sulindac + Lapatinib; first compound 2.53 µM): 0.829 | relative viability (Sulindac + Lapatinib; first compound 8 µM): 1.09 | relative viability ([2]; first compound 0.005 µM): 0.997 | relative viability ([2]; first compound 0.01581 µM): 0.772 | relative viability ([2]; first compound 0.05 µM): 0.661 | relative viability ([2]; first compound 0.1581 µM): 0.368 | relative viability ([2]; first compound 0.5 µM): 0.349

NCI-H1944
relative viability ([1]; first compound 0.005 µM): 1.39 | relative viability ([1]; first compound 0.05 µM): 0.696 | relative viability ([1]; first compound 0.1581 µM): 0.472 | relative viability ([1]; first compound 0.5 µM): 0.367 | relative viability (Sulindac + Navitoclax; first compound 0.08 µM): 0.958 | relative viability (Sulindac + Navitoclax; first compound 0.253 µM): 1 | relative viability (Sulindac + Navitoclax; first compound 0.8 µM): 1 | relative viability (Sulindac + Navitoclax; first compound 2.53 µM): 1.07 | relative viability (Sulindac + Navitoclax; first compound 8 µM): 1.23 | relative viability (Sulindac + Lapatinib; first compound 0.08 µM): 0.882 | relative viability (Sulindac + Lapatinib; first compound 0.253 µM): 0.906 | relative viability (Sulindac + Lapatinib; first compound 0.8 µM): 0.696 | relative viability (Sulindac + Lapatinib; first compound 2.53 µM): 0.842 | relative viability (Sulindac + Lapatinib; first compound 8 µM): 0.885
